test system: androgen receptor (AR) in LNCaP and/or VCaP cells; assay: Androgen Receptor ELISA assay (AR degradation); assay type: cell-based; details: degradation of AR ELISA in LNCaP and/or VCaP cells; Table 2C; read-out: DC50 Code*
Outline: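 VCaP cells grown ≥3 days, then treated 5 h with compound in media containing 1 nM R1881 (10× stock). Cells lysed and AR quantified by sandwich ELISA (mouse AR detection Ab, HRP anti-mouse, TMB). DC50 and Dmax derived from AR degradation.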

DC50, < 1 nM:
COc1cc(O[C@H]2C[C@H](N(CC3CC4(C3)CN(c3cnc(C(=O)N[C@H]5C(C)(C)[C@H](Oc6cc(C)c(C#N)c(C)c6)C5(C)C)cn3)C4)C(C)C)C2)cc2c1C(=O)N(C1CCC(=O)NC1=O)C2=O (stereo partly drawn) [compound 158, N-((1r,3r)-3-(4-cyano-3,5-dimethylphenoxy)-2,2,4,4-tetramethylcyclobutyl)-5-(6-((((1r,3r)-3-((2-(2,6-dioxopiperidin-3-yl)-7-methoxy-1,3-dioxoisoindolin-5-yl)oxy)cyclobutyl) (isopropyl)amino)methyl)-2-azaspiro[3.3]heptan-2-yl)pyrazine-2-carboxamide]
Cc1cc(O[C@H]2C(C)(C)[C@H](NC(=O)c3ccc(N4CCC(CN(C(C)C)[C@H]5C[C@H](Oc6ccc7c(c6)C(=O)N([C@@H]6CCC(=O)NC6=O)C7=O)C5)CC4)cc3)C2(C)C)cc(C)c1C#N [compound 160, N-((1r,3r)-3-(4-cyano-3,5-dimethylphenoxy)-2,2,4,4-tetramethylcyclobutyl)-4-(4-((((1R,3r)-3-((2-((R)-2,6-dioxopiperidin-3-yl)-1,3-dioxoisoindolin-5-yl)oxy)cyclobutyl) (isopropyl)amino)methyl)piperidin-1-yl)benzamide]
Cc1cc(O[C@H]2C(C)(C)[C@H](NC(=O)c3ccc(N4CCC(CN(C)[C@@H]5CC[C@@H](Oc6ccc7c(c6)C(=O)N(C6CCC(=O)NC6=O)C7=O)C5)CC4)cc3)C2(C)C)cc(C)c1C#N (stereo partly drawn) [compound 161, N-((1r,3R)-3-(4-cyano-3,5-dimethylphenoxy)-2,2,4,4-tetramethylcyclobutyl)-4-(4-((((1R,3R)-3-((2-(2,6-dioxopiperidin-3-yl)-1,3-dioxoisoindolin-5-yl)oxy)cyclopentyl) (methyl)amino)methyl)piperidin-1-yl)benzamide]
Cc1cc(O[C@H]2C(C)(C)[C@H](NC(=O)c3ccc(N4CCC(CN5CCCC[C@H]5COc5ccc6c(c5)C(=O)N(C5CCC(=O)NC5=O)C6=O)CC4)cc3)C2(C)C)cc(C)c1C#N (stereo partly drawn) [compound 162, N-((1r,3S)-3-(4-cyano-3,5-dimethylphenoxy)-2,2,4,4-tetramethylcyclobutyl)-4-(4-(((2S)-2-(((2-(2,6-dioxopiperidin-3-yl)-1,3-dioxoisoindolin-5-yl)oxy)methyl)piperidin-1-yl)methyl)piperidin-1-yl)benzamide]
Cc1cc(O[C@H]2C(C)(C)[C@H](NC(=O)c3ccc(N4CC5(CC(CN(C(C)C)[C@H]6C[C@H](Oc7ccc8c(c7)C(=O)N(C7CCC(=O)NC7=O)C8=O)C6)C5)C4)nn3)C2(C)C)cc(C)c1C#N (stereo partly drawn) [compound 163, N-((1r,3r)-3-(4-cyano-3,5-dimethylphenoxy)-2,2,4,4-tetramethylcyclobutyl)-6-(6-((((1r,3r)-3-((2-(2,6-dioxopiperidin-3-yl)-1,3-dioxoisoindolin-5-yl)oxy)cyclobutyl) (isopropyl)amino)methyl)-2-azaspiro[3.3]heptan-2-yl)pyridazine-3-carboxamide]
COc1cc(O[C@H]2C[C@H](N(C)CCOC3CCN(c4ccc(C(=O)N[C@H]5C(C)(C)[C@H](Oc6cc(C)c(C#N)c(C)c6)C5(C)C)cc4)CC3)C2)cc2c1C(=O)N(C1CCC(=O)NC1=O)C2=O (stereo partly drawn) [compound 164, N-((1r,3r)-3-(4-cyano-3,5-dimethylphenoxy)-2,2,4,4-tetramethylcyclobutyl)-4-(4-(2-(((1r,3r)-3-((2-(2,6-dioxopiperidin-3-yl)-7-methoxy-1,3-dioxoisoindolin-5-yl)oxy)cyclobutyl) (methyl)amino)ethoxy)piperidin-1-yl)benzamide]
